Molecular target: T1, Recombinant human renin (Homo sapiens, UniProt P00797)
T1 construct: isolate the active form (residues 67-406); made in house; host or cells: FreeStyle 293-F cells (transient expression of pcDNA3.1(+)/hREN)
T1 sequence (P00797 67-406): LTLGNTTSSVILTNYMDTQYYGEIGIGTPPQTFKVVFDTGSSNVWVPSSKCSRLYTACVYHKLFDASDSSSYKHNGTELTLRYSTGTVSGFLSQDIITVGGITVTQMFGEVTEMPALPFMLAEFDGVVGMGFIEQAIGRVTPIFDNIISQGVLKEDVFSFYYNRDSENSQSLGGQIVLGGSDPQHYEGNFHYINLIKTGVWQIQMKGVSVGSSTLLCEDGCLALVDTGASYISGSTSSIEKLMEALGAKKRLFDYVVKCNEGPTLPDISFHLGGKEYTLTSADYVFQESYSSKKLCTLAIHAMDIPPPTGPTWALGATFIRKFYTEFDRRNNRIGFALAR
Assay: In vitro enzymatic activity assay of renin inhibitors (fluorogenic peptide substrate)
Format: biochemical
Conditions: for IC50: read-out: IC50 of Exemplified Compounds Against Renin
Experimental: Test compounds in varying concentrations may be reacted with recombinant human renin in the presence of substrate, e.g., QXL520-γ-Abu-[…](HiLyteFluo488)-Arg-OH (Anaspec, San Jose, Calif.). […] Inhibition constants (IC50) may be calculated by non-linear curve fitting of the compound concentrations and fluorescence intensities to the standard IC50 equation.
Solutions of test compounds in varying concentrations mM final concentration) are prepared in dimethyl sulfoxide (DMSO) and then diluted into assay buffer comprising 50 mM Hepes, 1 mM EDTA, 1 mM DTT, 0.1 mg/mL BSA, 0.01% Brij35, pH 7.4. Alternatively, the assay can be performed with a high BSA concentration, wherein the buffer contains an additional 2% BSA.
Recombinant human renin (3 nM final concentration) is added to the dilutions and pre-incubated with the compounds for 10 minutes at 37° C. […] After pre-incubation, the reaction is initiated with of substrate QXL520-γ-Abu-[…](HiLyteFluo488)-Arg-OH (Anaspec, San Jose, Calif.). The final DMSO in the assay is 5%. The total volume of the reaction mixture is 20 μL, which can be placed on Greiner 384-well small volume plates.
The fluorescence intensity is determined upon the addition of substrate and determined again after incubation at 37° C. for one hour. The fluorescence intensity of a blank (no inhibition) using vehicle alone is also determined. Renin activity is linearly proportional to the change in fluorescence observed (final-initial).

Row | Eutomer / distomer designation of the separated stereoisomers (isomers separated by preparative SFC, more or less active isomer as renin inhibitor) | IC50 | Compound
1 | Eutomer | > 1000 nM | Cc1nc2ccccc2n1[C@H]1CCCN(C(=O)C[C@H](N)Cc2ccc3ccccc3c2)C1 [Compound 244, (R)-3-amino-1-((S)-3-(2-methyl-1H-benzo[d]imidazol-1-yl)piperidin-1-yl)-4-(naphthalen-2-yl)butan-1-one]
2 | – | 100 to 1000 nM | COCCCn1c([C@@H]2CCCN(C(=O)[C@@H]3CN(c4cccc(C#N)c4)C[C@H]3N)C2)nc2ccccc21 [Compound 507]
3 | – | < 100 nM | COCCCn1c([C@@H]2CCCN(C(=O)C[C@H](N)Cc3ccc(-c4c[nH]c(=O)[nH]c4=O)cc3)C2)nc2ccccc21 [Compound 169, 5-(4-((R)-2-amino-4-((R)-3-(1-(3-methoxypropyl)-1H-benzo[d]imidazol-2-yl)piperidin-1-yl)-4-oxobutyl)phenyl)pyrimidine-2,4(1H,3H)-dione]
4 | – | 100 to 1000 nM | COCCCn1c([C@@H]2CCCN(C(=O)[C@@H]3CN(C(=O)c4ccc(-c5ccccc5)o4)C[C@H]3N)C2)nc2ccccc21 [Compound 352, ((3R,4S)-4-amino-1-(5-phenylfuran-2-carbonyl)pyrrolidin-3-yl)((R)-3-(1-(3-methoxypropyl)-1H-benzo[d]imidazol-2-yl)piperidin-1-yl)methanone]
5 | – | < 100 nM | COCCCn1c([C@@H]2CCCN(C(=O)C[C@H](N)Cc3ccc(C(C)(C)C)cc3)C2)nc2ccccc21 [Compound 90, (R)-3-amino-4-(4-tert-butylphenyl)-1((R)-3-(1-(3-methoxypropyl)-1H-benzo[d]imidazol-2-yl)piperidin-1-yl)butan-1-one]
6 | – | < 100 nM | COCCCn1c([C@@H]2CCCN(C(=O)C[C@H](N)Cc3ccc(-c4cc[nH]c4)cc3)C2)nc2ccccc21 [Compound 152, (R)-4-(4-(1H-pyrrol-3-yl)phenyl)-3-amino-1-((R)-3-(1-(3-methoxypropyl)-1H-benzo[d]imidazol-2-yl)piperidin-1-yl)butan-1-one]
7 | – | 100 to 1000 nM | CC(=O)NCCn1c([C@@H]2CCCN(C(=O)C[C@H](N)Cc3ccc(-c4cnc(N)nc4)cc3)C2)nc2c(C)cccc21 [Compound 472, N-(2-(2-((R)-1-((R)-3-amino-4-(4-(2-aminopyrimidin-5-yl)phenyl)butanoyl)piperidin-3-yl)-4-methyl-1H-benzo[d]imidazol-1-yl)ethyl)acetamide]
8 | – | 100 to 1000 nM | COCCCn1c(C2CCCN(C(=O)C[C@H](N)Cc3ccc4ccccc4c3)C2)nc2ccc(C(=O)OC)cc21 (stereo partly drawn) [Compound 111, methyl 2-(1-((R)-3-amino-4-(naphthalen-2-yl)butanoyl)piperidin-3-yl)-1-(3-methoxypropyl)-1H-benzo[d]imidazole-6-carboxylate]
9 | – | < 100 nM | COCCCn1c([C@@H]2CCCN(C(=O)C[C@H](N)CNC(=O)Nc3cccc(OC)c3)C2)nc2ccccc21 [Compound 254, 1-((S)-2-amino-4-((R)-3-(1-(3-methoxypropyl)-1H-benzo[d]imidazol-2-yl)piperidin-1-yl)-4-oxobutyl)-3-(3-methoxyphenyl)urea]
10 | – | > 1000 nM | COCCCn1c([C@@H]2CCCN(C(=O)[C@@H]3CN(S(=O)(=O)c4cc(Br)ccc4OC)C[C@H]3N)C2)nc2ccccc21 [Compound 401, ((3R,4S)-4-amino-1-(5-bromo-2-methoxyphenylsulfonyl)pyrrolidin-3-yl)((R)-3-(1-(3-methoxypropyl)-1H-benzo[d]imidazol-2-yl)piperidin-l-yl)methanone]
11 | – | > 1000 nM | COCCCn1c(C2CCCN(C(=O)C[C@@H](N)c3ccccc3)C2)nc2ccccc21 (stereo partly drawn) [Compound 65, (3R)-3-amino-1-(3-(1-(3-methoxypropyl)-1H-benzo[d]imidazol-2-yl)piperidin-1-yl)-3-phenylpropan-1-one]
12 | – | < 100 nM | COCCCn1c([C@@H]2CCCN(C(=O)C[C@H](N)Cc3ccc(-n4c(=O)[nH]c5cc(C)c(C)cc54)cc3)C2)nc2ccccc21 [Compound 219, 1-(4-((R)-2-amino-4-((R)-3-(1-(3-methoxypropyl)-1H-benzo[d]imidazol-2-yl)piperidin-1-yl)-4-oxobutyl)phenyl)-5,6-dimethyl-1H-benzo[d]imidazol-2(3H)-one]
13 | – | < 100 nM | COCCCn1c([C@@H]2CCCN(C(=O)C[C@H](N)Cc3ccc(-c4ccc(C(=O)NCCOC(C)C)cc4)cc3)C2)nc2ccccc21 [Compound 179, 4′-((R)-2-amino-4-((R)-3-(1-(3-methoxypropyl)-1H-benzo[d]imidazol-2-yl)piperidin-1-yl)-4-oxobutyl)-N-(2-isopropoxyethyl)biphenyl-4-carboxamide]
14 | – | 100 to 1000 nM | COCCCn1c([C@@H]2CCCN(C(=O)C[C@H](N)CNC(=O)Nc3cc(C(C)(C)C)ccc3OC)C2)nc2ccccc21 [Compound 268, 1-((S)-2-amino-4-((R)-3-(1-(3-methoxypropyl)-1H-benzo[d]imidazol-2-yl)piperidin-1-yl)-4-oxobutyl)-3-(5-tert-butyl-2-methoxyphenyl)urea]
15 | – | > 1000 nM | COCCCn1c([C@@H]2CCCN(C(=O)C[C@H](N)CNC(=O)c3ccco3)C2)nc2ccccc21 [Compound 325, N-((S)-2-amino-4-((R)-3-(1-(3-methoxypropyl)-1H-benzo[d]imidazol-2-yl)piperidin-1-yl)-4-oxobutyl)furan-2-carboxamide]
16 | – | 100 to 1000 nM | COCCCn1c([C@@H]2CCCN(C(=O)[C@@H]3CN(C(=O)c4ccc5ccccc5c4)C[C@H]3N)C2)nc2ccccc21 [Compound 362, ((3R,4S)-1-(2-naphthoyl)-4-aminopyrrolidin-3-yl)((R)-3-(1-(3-methoxypropyl)-1H-benzo[d]imidazol-2-yl)piperidin-1-yl)methanone]
17 | – | 100 to 1000 nM | COCCCn1c([C@@H]2CCCN(C(=O)C[C@H](N)Cc3ccc(-c4cnc(C)n4C)cc3)C2)nc2ccccc21 [Compound 204, (R)-3-amino-4-(4-(1,2-dimethyl-1H-imidazol-5-yl)phenyl)-1-((R)-3-(1-(3-methoxypropyl)-1H-benzo[d]imidazol-2-yl)piperidin-1-yl)butan-1-one]
18 | – | < 100 nM | COCCCn1c([C@@H]2CCCN(C(=O)C[C@H](N)Cc3ccc(-c4ccc(C(=O)NCCO)c(F)c4)cc3)C2)nc2ccccc21 [Compound 190, 4′-((R)-2-amino-4-((R)-3-(1-(3-methoxypropyl)-1H-benzo[d]imidazol-2-yl)piperidin-1-yl)-4-oxobutyl)-3-fluoro-N-(2-hydroxyethyl)biphenyl-4-carboxamide]
19 | – | > 1000 nM | COCCCn1c([C@@H]2CCCN(C(=O)C[C@H](N)Cc3ccc4ccccc4c3)C2)nc2ccc(Cl)nc21 [Compound 502, (3R)-3-amino-1-(3-(5-chloro-3-(3-methoxypropyl)-3H-imidazo[4,5-b]pyridin-2-yl)piperidin-1-yl)-4-(naphthalen-2-yl)butan-1-one]
20 | – | > 1000 nM | COCCCn1c([C@@H]2CCCN(C(=O)[C@@H]3CN(C(=O)c4cccc(F)c4)C[C@H]3N)C2)nc2ccccc21 [Compound 393, ((3R,4S)-4-amino-1-(3-fluorobenzoyl)pyrrolidin-3-yl)((R)-3-(1-(3-methoxypropyl)-1H-benzo[d]imidazol-2-yl)piperidin-1-yl)methanone]
21 | – | < 100 nM | COCCCn1c([C@@H]2CCCN(C(=O)C[C@H](N)Cc3ccc(-c4ccc(C(=O)N5CCOCC5)cc4)cc3)C2)nc2ccccc21 [Compound 127, (R)-3-amino-1-((R)-3-(1-(3-methoxypropyl)-1H-benzo[d]imidazol-2-yl)piperidin-1-yl)-4-(4′-(morpholine-4-carbonyl)biphenyl-4-yl)butan-1-one]
22 | – | < 100 nM | COCCCn1c([C@@H]2CCCN(C(=O)C[C@H](N)Cc3ccc(-c4cnccc4OC)cc3)C2)nc2ccccc21 [Compound 162, (R)-3-Amino-1-((R)-3-(1-(3-methoxypropyl)-1H-benzo[d]imidazol-2-yl)piperidin-1-yl)-4-(4-(4-methoxypyridin-3-yl)phenyl)butan-1-one]
23 | – | > 1000 nM | N[C@@H](CC(=O)N1CCCC(c2nc3ccccc3[nH]2)C1)Cc1csc2ccccc12 (stereo partly drawn) [Compound 29, (3R)-1-(3-(1H-benzo[d]imidazol-2-yl)piperidin-1-yl)-3-amino-4-(benzo[b]thiophen-3-yl)butan-1-one]
24 | – | 100 to 1000 nM | COCCCn1c([C@@H]2CCCN(C(=O)C[C@H](N)c3cccc(Br)c3)C2)nc2ccccc21 [Compound 80, (S)-3-amino-3-(3-bromophenyl)-1((R)-3-(1-(3-methoxypropyl)-1H-benzo[d]imidazol-2-yl)piperidin-1-yl)propan-1-one]

Reference: patent publication US8138168B1 (Takeda Pharmaceutical Company Limited, priority 2007, dated 2012)
